What all share (type): biochemical
The target of one assay is Factor Xa (Homo sapiens, UniProt P00742). The experiment in a line: Enzymic hydrolysis of chromogenic substrate by Factor Xa (ΔOD/min). Conditions: equimolar doses, activity of reference CP 1 taken as 100%. The protocol:
(§1) The tripeptide compounds of formula I and their addition salts are useful in the determination of the enzymes involved in hemostasis. In particular, they constitute specific substrates for Factor Xa, plasmin or thrombin. The recommended method of determining these enzymes comprises bringing a given amount of a tripeptide of formula I or of one of its addition salts (at a concentration of the order of 10 mg/ml) into contact, in an appropriate aqueous liquid medium such as a buffered isotonic solution, with a test sample (diluted if appropriate) which may contain the target enzyme, for at least 0.5 h at a temperature of between RT and 40° C., especially 37° C.
(§2) The activity of the tripeptides according to the invention towards enzymes involved in hemostasis was determined by conventional methods such as those described in EP-A-0 280 160 (see page 14), the hydrolysis rate being assessed by the variation in optical density with time (ΔOD/min). The results obtained have been collated in Table II below, where the activity of reference products (CP 1 to CP 3) is specified as being equal to 100% for the sake of convenience.
(§3) Table II below summarizes the results of the comparative tests which were carried out at equimolar doses with the products of the invention and with standard substances, whose activity was taken as being equal to 100%.

The target in the next assay is Thrombin (Homo sapiens, UniProt P00734). Description: Enzymic hydrolysis of chromogenic substrate by thrombin (ΔOD/min). Conditions: for Activity towards Thrombin (hydrolysis rate relative to reference): equimolar doses, activity of reference CP 2 taken as 100%, hydrolysis rate as ΔOD/min. The protocol: as §1, §2, §3
The target in another assay is Plasmin (Homo sapiens, UniProt P00747). Description: Enzymic hydrolysis of chromogenic substrate by plasmin (ΔOD/min). Conditions: equimolar doses, activity of reference CP 3 taken as 100%. The protocol:
as §1, §2, §3

Where a SMILES comes first, the peptide text is derived from it. [ ]: non-standard residue; d: D form. The star is where a group is joined. Cha = N[C@@H](CC1CCCCC1)C(=O)O; dChg = N[C@@H](C(=O)O)C1CCCCC1; pNA = O=[N+]([O-])c1ccc(N*)cc1; dAbu = CC[C@@H](N)C(=O)O; Abu = CC[C@H](N)C(=O)O; Ms = CS(=O)(=O)*

Sequence of Plasmin (P00747 581-810 limits assumed, species assumed): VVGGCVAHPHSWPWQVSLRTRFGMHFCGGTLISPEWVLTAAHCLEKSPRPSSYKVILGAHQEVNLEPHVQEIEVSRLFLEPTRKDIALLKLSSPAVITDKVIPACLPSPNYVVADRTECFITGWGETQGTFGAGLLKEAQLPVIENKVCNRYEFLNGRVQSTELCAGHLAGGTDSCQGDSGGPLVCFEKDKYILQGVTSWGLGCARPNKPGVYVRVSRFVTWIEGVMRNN
Sequence of Plasmin (P00747 97-580 partner limits assumed, species assumed): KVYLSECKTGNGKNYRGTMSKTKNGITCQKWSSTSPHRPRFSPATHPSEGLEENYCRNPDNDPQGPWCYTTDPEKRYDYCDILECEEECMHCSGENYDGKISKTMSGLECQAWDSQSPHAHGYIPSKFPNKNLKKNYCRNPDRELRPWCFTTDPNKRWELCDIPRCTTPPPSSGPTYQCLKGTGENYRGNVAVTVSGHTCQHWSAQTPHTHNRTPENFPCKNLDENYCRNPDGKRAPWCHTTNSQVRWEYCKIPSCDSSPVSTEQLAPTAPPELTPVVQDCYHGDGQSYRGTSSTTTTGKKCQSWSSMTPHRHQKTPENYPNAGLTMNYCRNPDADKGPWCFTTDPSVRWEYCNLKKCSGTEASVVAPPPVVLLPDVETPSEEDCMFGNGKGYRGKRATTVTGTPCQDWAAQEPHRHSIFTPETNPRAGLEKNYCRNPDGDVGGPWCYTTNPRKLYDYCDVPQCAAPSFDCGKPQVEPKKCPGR
Sequence of Factor Xa (P00742 235-488 limits assumed): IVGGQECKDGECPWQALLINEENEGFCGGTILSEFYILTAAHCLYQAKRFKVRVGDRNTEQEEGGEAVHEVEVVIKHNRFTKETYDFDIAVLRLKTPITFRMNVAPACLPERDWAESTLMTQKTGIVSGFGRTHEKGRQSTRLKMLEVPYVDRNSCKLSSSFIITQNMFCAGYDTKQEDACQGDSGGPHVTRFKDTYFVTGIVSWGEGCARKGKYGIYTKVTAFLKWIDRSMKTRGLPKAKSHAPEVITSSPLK
Sequence of Factor Xa (P00742 41-179 partner limits assumed): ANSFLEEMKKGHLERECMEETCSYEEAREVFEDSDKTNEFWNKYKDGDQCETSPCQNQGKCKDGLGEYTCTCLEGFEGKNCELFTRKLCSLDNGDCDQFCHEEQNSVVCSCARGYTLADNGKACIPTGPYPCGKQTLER

`CC(C)C[C@@H](NS(C)(=O)=O)C(=O)NCC(=O)N[C@@H](CCCNC(=N)N)C(=O)Nc1ccc([N+](=O)[O-])cc1` [CP 1, MeSO2D-Leu--GlyL-Arg-pNA.AcOH, reference compound] (Ms-[dL]-Gly-Arg-pNA): the “Activity towards Xa (hydrolysis rate relative to reference)” value at Factor Xa was found to be 100%. Moreover, the “Activity towards Thrombin (hydrolysis rate relative to reference)” value on Thrombin came out at 18%. Besides, the “Activity towards Plasmin (hydrolysis rate relative to reference)” value on Plasmin turned out to be 30%.

Turning to `CC[C@H](NC(=O)[C@H](N)C1CCCCC1)C(=O)N[C@@H](CCCNC(=N)N)C(=O)Nc1ccc([N+](=O)[O-])cc1` [CP 2, HD-CHG-L-Abu-L-Arg-pNA.2AcOH, reference compound] (H-[dChg]-[Abu]-Arg-pNA), the “Activity towards Xa (hydrolysis rate relative to reference)” value at Factor Xa is given as 14%. Further, the “Activity towards Thrombin (hydrolysis rate relative to reference)” value at Thrombin came out at 100%. Moreover, the “Activity towards Plasmin (hydrolysis rate relative to reference)” value at Plasmin came out at 77%.

As for `CC[C@@H](N)C(=O)N[C@@H](CC1CCCCC1)C(=O)N[C@@H](CCCNC(=N)N)C(=O)Nc1ccc([N+](=O)[O-])cc1` [CP 3, HD-Abu-L-CHA-L-Arg-pNA.2AcOH, reference compound] (H-[dAbu]-[Cha]-Arg-pNA), at Factor Xa, the “Activity towards Xa (hydrolysis rate relative to reference)” value came to 14%. The “Activity towards Thrombin (hydrolysis rate relative to reference)” value on Thrombin turned out to be 10%. The “Activity towards Plasmin (hydrolysis rate relative to reference)” value at Plasmin stood at 100%.

For “PEG200 (CO-D-CHA-Gly-L-Arg-pNA)2 [Ex. 7]”, the “Activity towards Xa (hydrolysis rate relative to reference)” value at Factor Xa amounted to 45%. Besides, the “Activity towards Thrombin (hydrolysis rate relative to reference)” value at Thrombin came to 21%. Besides, at Plasmin, the “Activity towards Plasmin (hydrolysis rate relative to reference)” value stood at 112%.

As for “PEG200 (D-Glu(OBzl)-L-Pro-L-Arg-pNA)2.2AcOH [Ex. 4]”, the “Activity towards Xa (hydrolysis rate relative to reference)” value at Factor Xa is reported as 11%. Besides, at Thrombin, the “Activity towards Thrombin (hydrolysis rate relative to reference)” value came out at 45%. At Plasmin, the “Activity towards Plasmin (hydrolysis rate relative to reference)” value is listed as 289%.

With “PEG200 (D-Leu-Gly-L-Arg-pNA)2.2AcOH [Ex. 6]”, on Factor Xa, the “Activity towards Xa (hydrolysis rate relative to reference)” value worked out at 105%. Further, the “Activity towards Thrombin (hydrolysis rate relative to reference)” value at Thrombin is 23%. The “Activity towards Plasmin (hydrolysis rate relative to reference)” value at Plasmin came to 188%.

In the case of “PEG200 (D-Nle-L-CHA-L-Arg-pNA)2.2AcOH [Ex. 5]”, the “Activity towards Xa (hydrolysis rate relative to reference)” value on Factor Xa came out at 20%. The “Activity towards Thrombin (hydrolysis rate relative to reference)” value at Thrombin amounted to 110%. Besides, the “Sensitivity towards thrombin compared with reference substrate” value at Thrombin (in words, versus CP 1 as printed) was “more sensitive than the reference substrate CP 1”. Further, at Plasmin, the “Activity towards Plasmin (hydrolysis rate relative to reference)” value was 15%.

On to “PEG200 (Gly-L-Pro-L-Arg-pNA)2.2AcOH [Ex. 2]”, for which the “Activity towards Xa (hydrolysis rate relative to reference)” value at Factor Xa came out at 6%. At Thrombin, the “Activity towards Thrombin (hydrolysis rate relative to reference)” value amounted to 34%. Also, the “Activity towards Plasmin (hydrolysis rate relative to reference)” value at Plasmin came out at 130%.

“PEG300 (D-Leu-Gly-L-Arg-pNA)2.2AcOH [Ex. 8]”: at Factor Xa, the “Activity towards Xa (hydrolysis rate relative to reference)” value is on record as 60%. The “Activity towards Thrombin (hydrolysis rate relative to reference)” value on Thrombin is 25%. The “Activity towards Plasmin (hydrolysis rate relative to reference)” value at Plasmin worked out at 150%.

Turning to “PEG400 (D-Leu-Gly-L-Arg-pNA)2.2AcOH [Ex. 9]”, on Factor Xa, the “Activity towards Xa (hydrolysis rate relative to reference)” value stood at 74%. In addition, at Thrombin, the “Activity towards Thrombin (hydrolysis rate relative to reference)” value was determined as 34%. For the same molecule, the “Activity towards Plasmin (hydrolysis rate relative to reference)” value at Plasmin came out at 165%.

For the molecule “PEG600 (CO-Gly-L-Pro-L-Arg-pNA)2 [Ex. 3]”, the “Activity towards Xa (hydrolysis rate relative to reference)” value on Factor Xa stood at 10%. Also, the “Activity towards Thrombin (hydrolysis rate relative to reference)” value at Thrombin amounted to 50%. In addition, the “Activity towards Plasmin (hydrolysis rate relative to reference)” value on Plasmin was 122%.

(Values after US5225532A, “Symmetrical bipeptides containing a polyalkylene glycol residue, method of preparation and use in the assay of proteases” (Serbio, priority 1990, dated 1993).)
